# Test results published in patent publication US20250368634A1, “PHENYL AMIDE COMPOUNDS AND METHODS OF USE” (SCHRÖDINGER, INC., priority 2022, published 2025).
# Read-outs that look alike come from different tables or passages of the source.
# Target: SOS1-KRas (G12C) (Homo sapiens (Human), UniProt Q07889)
# Assay: SOS1-KRas (G12C) FRET Assay
# Type: binding
# [1] = inhibition of SOS1:KRAS interaction, 0.5 nM His10-SOS1 (res. 564-1049), 2.5 nM GST-KRAS (res. 1-169, G12C), 2 hrs at RT
# Experimental: The final assay was performed at 20 uL with 0.5 nM SOS1 protein and 2.5 nM KRAS protein in a buffer of PBS, 0.1% BSA, 5 mM MgCl2, 0.0025% Igepal, 100 mM KF, 5 mM DTT in a white 384 square well OptiPlate (PerkinElmer, Cat. 6007290). A 2×KRAS working solution was prepared in an assay buffer containing 5 nM GST-KRAS G12C and 2 nM anti-GST-Eu (K) (Cisbio, Cat. 61GSTKLA) and pre-incubated for 15 minutes at 25° C. […] The final DMSO concentration is 0.5%. Plates were incubated at RT for 2 hrs before the FRET signal was measured using Envision at emission 665 nm and 615 nm. FRET signal was converted to percentage of protein-protein interaction using the following equation:
# [formula] • C: signal with compound treatment • P: signal for positive control (DMSO) • N: signal for negative control (no SOS1 added) • IC50 and Hill coefficients were obtained using Graph Pad Prism (Graph Pad software, Inc, USA) with non-linear regression analysis.
# SOS1-KRas (G12C), sequence (Q07889 564-1049, stated change not applied): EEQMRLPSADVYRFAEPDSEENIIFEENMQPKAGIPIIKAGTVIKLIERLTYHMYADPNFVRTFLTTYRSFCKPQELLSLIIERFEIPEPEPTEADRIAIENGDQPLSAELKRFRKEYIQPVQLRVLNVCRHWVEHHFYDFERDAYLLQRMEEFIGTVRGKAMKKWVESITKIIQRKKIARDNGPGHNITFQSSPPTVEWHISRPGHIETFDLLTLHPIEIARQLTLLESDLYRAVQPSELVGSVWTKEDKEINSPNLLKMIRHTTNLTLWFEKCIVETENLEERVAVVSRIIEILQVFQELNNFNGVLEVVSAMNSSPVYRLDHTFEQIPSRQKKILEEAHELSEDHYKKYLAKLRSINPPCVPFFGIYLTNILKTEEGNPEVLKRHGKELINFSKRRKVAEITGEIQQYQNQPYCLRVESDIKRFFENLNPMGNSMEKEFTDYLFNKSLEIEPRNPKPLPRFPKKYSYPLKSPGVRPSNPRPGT
Structure (SMILES),IC50 [1],IC50
"C[C@@H](NC(=O)c1cc(N2CC[C@@]3(CCOC3)C2)c(F)cc1NC1CCN(C)CC1)c1cccc(C(F)F)c1F (single isomer, unassigned) [Example 30]",39.6 nM,–
"C[C@@H](NC(=O)c1cc(N2CC[C@]3(CCOC3)C2)c(F)cc1NC1CCN(C)CC1)c1cccc(C(F)F)c1F (single isomer, unassigned) [Example 31]",40.4 nM,–
"C[C@@H](NC(=O)c1cc(N2CC[C@@]23CCOC3)c(F)cc1NC1CCN(C)CC1)c1cccc(C(F)F)c1F (single isomer, unassigned) [Example 34]",–,112 nM
"C[C@@H](NC(=O)c1cc(N2CC[C@]23CCOC3)c(F)cc1NC1CCN(C)CC1)c1cccc(C(F)F)c1F (single isomer, unassigned) [Example 35]",–,81.5 nM
"C[C@@H]1CC(F)(F)CN1c1cc(C(=O)N[C@H](C)c2cccc(C(F)F)c2F)c(NC2CCN(C)CC2)cc1F (single isomer, unassigned) [Example 36]",–,97.5 nM
"C[C@H](CN(C)C)Nc1cc(F)c(N2CCOCC2)cc1C(=O)N[C@H](C)c1cccc(C(F)F)c1F (single isomer, unassigned) [Example 49]",70.7 nM,–
"C[C@@H](CN(C)C)Nc1cc(F)c(N2CCOCC2)cc1C(=O)N[C@H](C)c1cccc(C(F)F)c1F (single isomer, unassigned) [Example 50]",199 nM,–
"C[C@@H](NC(=O)c1cc(-c2ccncc2)c(F)cc1N[C@H]1CN2CCC1CC2)c1cccc(C(F)F)c1F (single isomer, unassigned) [Example 58]",–,7.9 nM
"C[C@@H](NC(=O)c1cc(-c2ccncc2)c(F)cc1N[C@@H]1CN2CCC1CC2)c1cccc(C(F)F)c1F (single isomer, unassigned) [Example 59]",–,25.7 nM
"C[C@@H](NC(=O)c1cc(N2CCOCC2)c(F)cc1NC1CCN(C)CC1)c1cccc(C(F)F)c1F [Example 1, (R)—N-(1-(3-(difluoromethyl)-2-fluorophenyl)ethyl)-4-fluoro-2-((1-methylpiperidin-4-yl)amino)-5-morpholinobenzamide]",–,20.2 nM
"C[C@@H](NC(=O)c1cc(N2C[C@H]3C[C@@H]2CO3)c(F)cc1NC1CCN(C)CC1)c1cccc(C(F)F)c1F [Example 2, 5-((1R,4R)-2-oxa-5-azabicyclo[2.2.1]heptan-5-yl)-N—((R)-1-(3-(difluoromethyl)-2-fluorophenyl)ethyl)-4-fluoro-2-((1-methylpiperidin-4-yl)amino)benzamide]",99.5 nM,–
"Cc1c([C@@H](C)NC(=O)c2cc(N3CCOCC3)c(F)cc2NC2CCN(C)CC2)cccc1C(F)(F)F [Example 3, (R)-4-fluoro-N-(1-(2-methyl-3-(trifluoromethyl)phenyl)ethyl)-2-((1-methylpiperidin-4-yl)amino)-5-morpholinobenzamide]",56.9 nM,–
"C[C@@H](NC(=O)c1cc(N2CCOCC2)c(C#N)cc1NC1CCN(C)CC1)c1cccc(C(F)F)c1F [Example 4, (R)-4-cyano-N-(1-(3-(difluoromethyl)-2-fluorophenyl)ethyl)-2-((1-methylpiperidin-4-yl)-amino)-5-morpholinobenzamide]",15 nM,–
"C[C@@H](NC(=O)c1cc(N2CCN(C)CC2)c(F)cc1NC1CCN(C)CC1)c1cccc(C(F)F)c1F [Example 5, (R)—N-(1-(3-(difluoromethyl)-2-fluorophenyl)ethyl)-4-fluoro-5-(4-methylpiperazin-1-yl)-2-((1-methylpiperidin-4-yl)amino)benzamide]",–,24.3 nM
"C[C@@H](NC(=O)c1cc(N2CC3CC(C2)O3)c(F)cc1NC1CCN(C)CC1)c1cccc(C(F)F)c1F [Example 6, 5-(6-oxa-3-azabicyclo[3.1.1]heptan-3-yl)-N—((R)-1-(3-(difluoromethyl)-2-fluorophenyl)ethyl)-4-fluoro-2-((1-methylpiperidin-4-yl)amino)benzamide]",–,88 nM
"C[C@@H](NC(=O)c1cc(N2CCn3nccc3C2)c(F)cc1NC1CCN(C)CC1)c1cccc(C(F)F)c1F [Example 7, (R)—N-(1-(3-(difluoromethyl)-2-fluorophenyl)ethyl)-5-(6,7-dihydropyrazolo[1,5-a]pyrazin-5 (4H)-yl)-4-fluoro-2-((1-methylpiperidin-4-yl)amino)benzamide]",–,27.9 nM
"Cc1c([C@@H](C)NC(=O)c2cc(N3CC4(C3)CS(=O)(=O)C4)c(F)cc2NC2CCN(C)CC2)cccc1C(F)(F)F [Example 8, (R)-5-(2,2-dioxido-2-thia-6-azaspiro[3.3]heptan-6-yl)-4-fluoro-N-(1-(2-methyl-3-(trifluoromethyl)phenyl)ethyl)-2-((1-methylpiperidin-4-yl)amino)benzamide]",74.5 nM,–

Structure (SMILES),IC50 [1],IC50
"C[C@@H](NC(=O)c1cc(O[C@@H]2CCOC2)c(F)cc1NC1CCN(C)CC1)c1cccc(C(F)F)c1F [Example 9, N—((R)-1-(3-(difluoromethyl)-2-fluorophenyl)ethyl)-4-fluoro-2-((1-methylpiperidin-4-yl)amino)-5-(((R)-tetrahydrofuran-3-yl)oxy)benzamide]",–,94 nM
"C[C@@H](NC(=O)c1cc(O[C@H]2CCOC2)c(F)cc1NC1CCN(C)CC1)c1cccc(C(F)F)c1F [Example 10, N—((R)-1-(3-(difluoromethyl)-2-fluorophenyl)ethyl)-4-fluoro-2-((1-methylpiperidin-4-yl)amino)-5-(((S)-tetrahydrofuran-3-yl)oxy)benzamide]",71.6 nM,–
"Cc1c([C@@H](C)NC(=O)c2cc(-c3cnn(C)c3)c(F)cc2NC2CCN(C)CC2)cccc1C(F)(F)F [Example 11, (R)-4-fluoro-5-(1-methyl-1H-pyrazol-4-yl)-N-(1-(2-methyl-3-(trifluoromethyl)phenyl)ethyl)-2-((1-methylpiperidin-4-yl)amino)benzamide]",–,149 nM
"Cc1c([C@@H](C)NC(=O)c2cc(N3CCOCC3)c(Cl)cc2NC2CCN(C)CC2)cccc1C(F)(F)F [Example 13, (R)-4-chloro-N-(1-(2-methyl-3-(trifluoromethyl)phenyl)ethyl)-2-((1-methylpiperidin-4-yl)amino)-5-morpholinobenzamide]",67.2 nM,–
"C[C@@H](NC(=O)c1cc(N2CCOCC2)c(F)cc1NC1CCNCC1)c1cccc(C(F)F)c1F [Example 14, (R)—N-(1-(3-(difluoromethyl)-2-fluorophenyl)ethyl)-4-fluoro-5-morpholino-2-(piperidin-4-ylamino)benzamide]",21.7 nM,–
"C[C@@H](NC(=O)c1cc(N2CCOCC2)c(F)cc1N[C@H]1CN2CCC1CC2)c1cccc(C(F)F)c1F [Example 15, N—((R)-1-(3-(difluoromethyl)-2-fluorophenyl)ethyl)-4-fluoro-5-morpholino-2-(((R)-quinuclidin-3-yl)amino)benzamide]",–,12.9 nM
"C[C@@H](NC(=O)c1cc(N2CCOCC2)c(F)cc1N[C@@H]1CN2CCC1CC2)c1cccc(C(F)F)c1F [Example 16, N—((R)-1-(3-(difluoromethyl)-2-fluorophenyl)ethyl)-4-fluoro-5-morpholino-2-(((S)-quinuclidin-3-yl)amino)benzamide]",–,41.6 nM
"C[C@@H](NC(=O)c1cc(N2CCOCC2)c(F)cc1N[C@@H]1[C@@H]2C[C@H]1CN(C)C2)c1cccc(C(F)F)c1F [Example 17, N—((R)-1-(3-(difluoromethyl)-2-fluorophenyl)ethyl)-4-fluoro-2-(((1R,5S,6s)-3-methyl-3-azabicyclo[3.1.1]heptan-6-yl)amino)-5-morpholinobenzamide]",98.9 nM,–
"C[C@@H](NC(=O)c1cc(N2CCOCC2)c(F)cc1N[C@H]1[C@@H]2C[C@H]1CN(C)C2)c1cccc(C(F)F)c1F [Example 18, N—((R)-1-(3-(difluoromethyl)-2-fluorophenyl)ethyl)-4-fluoro-2-(((1R,5S,6r)-3-methyl-3-azabicyclo[3.1.1]heptan-6-yl)amino)-5-morpholinobenzamide]",17.8 nM,–
"C[C@@H](NC(=O)c1cc(N2C[C@@H]3C[C@H]2CO3)c(F)cc1NC1CCN(C)CC1)c1cccc(C(F)F)c1F [Example 19, 5-((1S,4S)-2-oxa-5-azabicyclo[2.2.1]heptan-5-yl)-N—((R)-1-(3-(difluoromethyl)-2-fluorophenyl)ethyl)-4-fluoro-2-((1-methylpiperidin-4-yl)amino)benzamide]",–,99.4 nM
"CC(=O)N1CC2(C1)CN(c1cc(C(=O)N[C@H](C)c3cccc(C(F)(F)F)c3C)c(NC3CCN(C)CC3)cc1F)C2 [Example 20, (R)-5-(6-acetyl-2,6-diazaspiro[3.3]heptan-2-yl)-4-fluoro-N-(1-(2-methyl-3-(trifluoromethyl)phenyl)ethyl)-2-((1-methylpiperidin-4-yl)amino)benzamide]",26.4 nM,–
"Cc1c([C@@H](C)NC(=O)c2cc(C3CCOCC3)c(F)cc2NC2CCN(C)CC2)cccc1C(F)(F)F [Example 21, (R)-4-fluoro-N-(1-(2-methyl-3-(trifluoromethyl)phenyl)ethyl)-2-((1-methylpiperidin-4-yl)amino)-5-(tetrahydro-2H-pyran-4-yl)benzamide]",225 nM,–
"CC(=O)N1CCN(c2cc(C(=O)N[C@H](C)c3cccc(C(F)(F)F)c3C)c(NC3CCN(C)CC3)cc2F)CC1 [Example 22, (R)-5-(4-acetylpiperazin-1-yl)-4-fluoro-N-(1-(2-methyl-3-(trifluoromethyl)phenyl)ethyl)-2-((1-methylpiperidin-4-yl)amino)benzamide]",20.6 nM,–
"Cc1c([C@@H](C)NC(=O)c2cc(N3CCOCC3)ccc2NC2CCN(C)CC2)cccc1C(F)(F)F [Example 23, (R)—N-(1-(2-methyl-3-(trifluoromethyl)phenyl)ethyl)-2-((1-methylpiperidin-4-yl)amino)-5-morpholinobenzamide]",358 nM,–
"C[C@@H](NC(=O)c1cc(N2CCOCC2)c(C#N)cc1N[C@H]1CN2CCC1CC2)c1cccc(C(F)F)c1F [Example 24, 4-cyano-N—((R)-1-(3-(difluoromethyl)-2-fluorophenyl)ethyl)-5-morpholino-2-(((R)-quinuclidin-3-yl)amino)benzamide]",22.7 nM,–
"C[C@@H](NC(=O)c1cc(N2CCOCC2)c(C#N)cc1N[C@@H]1CN2CCC1CC2)c1cccc(C(F)F)c1F [Example 25, 4-cyano-N—((R)-1-(3-(difluoromethyl)-2-fluorophenyl)ethyl)-5-morpholino-2-(((S)-quinuclidin-3-yl)amino)benzamide]",7.4 nM,–
